The test system of one data set is serotonin oedema. Description: Antiserotonin effect in vivo: rat-sole oedema (serotonin oedema blocking).
The test system of another data set is blood pressure of cats. The experiment in a line: Antihypertensive effect: blood pressure of anaesthetized cats. Format: in vivo, cat. The protocol:
Antihypertensive effect
Method: the blood pressure of cats anaesthetized with
intraperitoneally administered 30 mg/kg of pento-
barbital was measured in the left femoral artery
by means of the Statham P 23 db manometer and re-
corded on Hellige polygraph. The compounds were
administered into the right femoral vein.
Number of animals: 2 to 5 per dose.

Data set [1] has as its system alpha- or beta-sympatholytic, ganglion-blocking or adrenergic neuron-blocking action. The experiment in a line: Sympatholytic, ganglion-blocking and adrenergic neuron-blocking action. As to conditions: in vivo. Here is the method:
(§1) It is characteristic of one of the compounds of the present invention and having a hypotensive action that when administered in intravenous doses of 0.1 to 0.5 mg/kg to cats and dogs in pentothal anaesthesia it provokes a permanent decrease of 20 to 60 mmHg in blood pressure (Table 3). […] It might therefore be assumed that the hypotensive effect of the compound according to the invention is the result of its inhibiting effect on the sympathetic cerebral centres. These properties are the most characteristic of the dihydro-lysergic-acid-(3'-/pyrrolid-2"-on-1"-yl/-propyl)-amide bimaleate (Example 1).

The test system of data set [2] is acute hypertension produced by the infusion of angiotensin. Description: Inhibition of acute hypertension produced by infusion of angiotensin. As to conditions: in vivo.
The test system of data set [3] is renal circulation, cerebral blood-vessels, blood-vessels of other organs. Description: Effect on renal circulation and blood-vessels of organs. As to conditions: in vivo. The protocol:
as §1

The subject of data set [4] is hypertension produced by stimulation of the baroreceptors and the central vagus stump. Description: Inhibition of hypertension produced by stimulation of the baroreceptors and the central vagus stump. As to conditions: in vivo. The protocol:
as §1

Data set [5] deals with catecholamine content of the organs. Description: Catecholamine content of the organs. As to conditions: in vivo.
The subject of a further data set is reserpine hypothermia. Description: Antidepressant test: antagonization of reserpine hypothermia. Format: in vivo. As to conditions: 30 mg/kg, intraperitoneally. Here is the method:
Antidepressant effect (Δt, ° C) and acute toxicity
Antidepressant test: antagonization of reserpine hypothermia
Dose: 30 mg/kg, intraperitoneally
Δt, ° C: change in body temperature compared to that of
Description of the method: ASKEW, B.M., Life Sci. 10, 725

The next data set relates to isolated rat uterus. Description: Antiserotonin effect in vitro on isolated rat uterus. As to conditions: read-out: In vitro ED50 (antiserotonin effect). An excerpt: It is characteristic of the compound that its effect is well measurable even after oral administration, indicating its ready peroral absorption.
In vitro: on isolated rat uterus
Description of the method; GADDUM, J. H. and HAMMED, L. A.: […]

The nature of data set [6]: Acute toxicity: LD50 on mice after 24 hours. As to conditions: mouse, in vivo. The protocol: Acute toxicity: LD50 on mice after 24 hours.
Description of the method: […], J.T.jr. and
WILCOXON, F.J., Pharmacol. exp.

Where [7] appears, read: po, rat-sole oedema, peroral, serotonin creatinine sulphate 5 μg per sole in 0.1 ml.
The mark [8] stands for this setting: sc, rat-sole oedema, subcutane, serotonin creatinine sulphate 5 μg per sole in 0.1 ml.

These results are taken from patent US4101552A, “Novel lysergic acid amides and process for preparing same” (Richter Gedeon Vegyeszeti Gyar Rt., priority 1975, dated 1978).

`CC[C@@H](CO)NC(=O)[C@@H]1C=C2c3cccc4c3c(cn4C)C[C@H]2N(C)C1` (racemic) [Deseryl, N-[1-(hydroxymethyl)propyl]-1-methyl-d-/+/-lysergamide, reference compound]: it took a dose of 0.64 mg/kg to reach the 50% effect level in the data set with serotonin oedema (setting [7]) (ED50). Also, in the data set with serotonin oedema (rat-sole oedema, subcutane, serotonin creatinine sulphate 5 μg per sole in 0.1 ml), the “Serotonin oedema blocking effect ED50” value was 0/026.
`CN1C[C@H](C(=O)N[C@]2(C)O[C@@]3(O)[C@@H]4CCCN4C(=O)[C@H](Cc4ccccc4)N3C2=O)C[C@@H]2c3cccc4[nH]cc(c34)C[C@H]21` [Dihydroergotamine, reference compound]: in the data set with blood pressure of cats (0.2 mg/kg i.v.), the “Decrease in blood pressure” value is on record as -25 mmHg and the “Decrease in blood pressure, duration” value was 0.5 h.
With `CN1C[C@H](C(=O)NCCCN2CCCC2=O)C[C@@H]2c3cccc4[nH]cc(c34)C[C@H]21` [Example 1, 9,10-Dihydrolysergic-acid-(3'-/pyrrolid-2"-on-1"-yl/-propyl)-amide bimaleate], the “alpha- or beta-sympatholytic, ganglion-blocking or adrenergic neuron-blocking action” value in data set [1] was “no alpha- or beta-sympatholytic, ganglion-blocking or adrenergic neuron-blocking action”. Also, in data set [2], the “inhibition of acute hypertension produced by infusion of angiotensin” value is given as “inhibits acute hypertension produced by the infusion of angiotensin”. In data set [3], the “effect on cerebral blood-vessels and blood-vessels of other organs” value is listed as “does not cause a constriction of the cerebral blood-vessels or a substantial change in the blood-vessels of other organs”; the renal circulation entry is listed as “tends to improve renal circulation”. The “inhibition of hypertension produced by stimulation of the baroreceptors and the central vagus stump” value in data set [4] is “inhibits hypertension produced by the stimulation of the baroreceptors and the central vagus stump”. In data set [5], the “catecholamine content of the organs” value was “does not alter the catecholamine content of the organs”.
For `CN1C[C@H](C(=O)NCCCN2CCCC2=O)C=C2c3cccc4[nH]cc(c34)C[C@H]21` [Example 2, Lysergic-acid-(3'-/pyrrolid-2"-on-1"-yl/-propyl)-amide bimaleate], the “Antidepressant effect, Δt (change in body temperature compared to that of the control)” value in the data set on reserpine hypothermia came to 3.5 °C. Also, in the data set on blood pressure of cats (0.5 mg/kg i.v.), the “Decrease in blood pressure” value is reported as -50 mmHg and the “Decrease in blood pressure, duration” value stood at 1.5 h.
For the molecule `CN1C[C@H](C(=O)NCCCN2CCCC2=O)C[C@@H]2c3cccc4c3c(cn4C)C[C@H]21` [Example 3, 1-Methyl-9,10-dihydrolysergic-acid(3'-/pyrrolid-2"-on-1"-yl/propyl)-amide bimaleate], in the data set with blood pressure of cats (0.5 mg/kg i.v.), the “Decrease in blood pressure” value is -30 mmHg and the “Decrease in blood pressure, duration” value is 2.0 h. Further, the ED50 (in general, the midpoint of the dose-response relation) with serotonin oedema (setting [7]) turned out to be 1.5 mg/kg. This molecule gave an ED50 in the data set on serotonin oedema (setting [8]) of 0.3 mg/kg. Moreover, the IC50 in the data set with isolated rat uterus came to 5 ng/mL.
For `CN1C[C@H](C(=O)NC2=NCCS2)C[C@@H]2c3cccc4c3c(cn4C)C[C@H]21` [Example 4, 1-Methyl-9,10-dihydrolysergic-acid-(2'-thiazolin-2'-yl)-amide bimaleate], the LD50 (commonly the dose expected to kill half of the subjects tested) at 24 h in [6] (ip, intraperitoneally) was 330 mg/kg; in data set [6] (po, orally), 315 mg/kg. Also, the “Antidepressant effect, Δt (change in body temperature compared to that of the control)” value in the data set on reserpine hypothermia turned out to be 4.1 °C. In addition, the “peroral efficacy (in words)” value in the data set on serotonin oedema (peroral) is given as “particularly favourable peroral efficacy”. Moreover, in the data set on serotonin oedema (peroral, surpassing the efficacy of Deseryl), the “peroral efficacy relative to Deseryl” value is listed as “about 3.5 times”. The ED50 with serotonin oedema (setting [7]) was determined as 0.12 mg/kg; in the data set with serotonin oedema (setting [8]), 0.022 mg/kg. For the same molecule, the IC50 in the data set on isolated rat uterus was found to be 0.05 ng/mL.
With `CN1C[C@H](C(=O)NC2=NCCS2)C[C@@H]2c3cccc4[nH]cc(c34)C[C@H]21` [Example 5, 9,10-Dihydrolysergic-acid-(thiazolin-2'-yl)-amide bimaleate], in the data set with reserpine hypothermia, the “Antidepressant effect, Δt (change in body temperature compared to that of the control)” value is 3.6 °C. Further, the ED50 in the data set on serotonin oedema (setting [7]) is 3 mg/kg; in the data set on serotonin oedema (setting [8]), 0.3 mg/kg. Also, in the data set with isolated rat uterus, the IC50 stood at 500 ng/mL.
For `C=CCOCC(O)CNC(=O)[C@@H]1C=C2c3cccc4[nH]cc(c34)C[C@H]2N(C)C1` (stereo partly shown) [Example 6, Lysergic-acid-(3'-allyloxy-2'-oxy-propyl)-amide bimaleate], the LD50 at 24 h in [6] (ip, intraperitoneally) is 110 mg/kg; in data set [6] (po, orally), 205 mg/kg. Further, the “Antidepressant effect, Δt (change in body temperature compared to that of the control)” value in the data set on reserpine hypothermia stood at 5.4 °C.
On to `CN1C[C@H](C(=O)Nc2nccs2)C=C2c3cccc4[nH]cc(c34)C[C@H]21` [Example 7, Lysergic-acid-(thiazol-2'-yl)-amide bimaleate], for which the “Antidepressant effect, Δt (change in body temperature compared to that of the control)” value in the data set with reserpine hypothermia stood at 8.0 °C.
As for `CN1C[C@H](C(=O)Nc2nccs2)C[C@@H]2c3cccc4c3c(cn4C)C[C@H]21` [Example 9, 1-Methyl-9,10-dihydrolysergic-acid-(thiazol-2'-yl)-amide bimaleate], the “Antidepressant effect, Δt (change in body temperature compared to that of the control)” value in the data set on reserpine hypothermia is 4.7 °C. In the data set on blood pressure of cats (1.0 mg/kg i.v.), the “Decrease in blood pressure” value is reported as -20 mmHg and the “Decrease in blood pressure, duration” value stood at 1.5 h. The molecule further displayed an ED50 in the data set with serotonin oedema (setting [7]) of 1 mg/kg. The molecule further registered an ED50 with serotonin oedema (setting [8]) of 0.03 mg/kg. Besides, the IC50 with isolated rat uterus was determined as 500 ng/mL.
Regarding `CN1C[C@H](C(=O)Nc2cccc3ncccc23)C=C2c3cccc4[nH]cc(c34)C[C@H]21` [Example 10, Lysergic-acid-(quinolin-5-yl)-amide bimaleate], the “Antidepressant effect, Δt (change in body temperature compared to that of the control)” value in the data set with reserpine hypothermia came to 3.9 °C.
Same read-out and setting: then `CN1C[C@H](C(=O)Nc2ccnn2-c2ccccc2)C=C2c3cccc4[nH]cc(c34)C[C@H]21` [Example 11, Lysergic-acid-(1'-phenyl-pyrazol-5'-yl)-amide bimaleate], with 2.9 °C.
With `Cc1ccc(NC(=O)[C@@H]2C=C3c4cccc5[nH]cc(c45)C[C@H]3N(C)C2)c(F)c1` [Example 12, Lysergic-acid-(2'-fluoro-4'-methyl-phenyl)-amide bimaleate], the LD50 at 24 h in [6] (ip, intraperitoneally) worked out at 30 mg/kg. In the data set with reserpine hypothermia, the “Antidepressant effect, Δt (change in body temperature compared to that of the control)” value turned out to be 6.9 °C.
Turning to `CSc1cccc(NC(=O)[C@@H]2C=C3c4cccc5[nH]cc(c45)C[C@H]3N(C)C2)c1` [Example 13, Lysergic-acid-(3'-methyl-mercapto)-anilide bimaleate], the “Antidepressant effect, Δt (change in body temperature compared to that of the control)” value in the data set with reserpine hypothermia was found to be 7.0 °C.
For `Cc1cc(O)ccc1NC(=O)[C@@H]1C[C@@H]2c3cccc4c3c(cn4C)C[C@H]2N(C)C1` [Example 14, 1-Methyl-9,10-dihydrolysergic-acid-(4'-m-cresyl)-amide bimaleate], the “Antidepressant effect, Δt (change in body temperature compared to that of the control)” value with reserpine hypothermia worked out at 3.4 °C. Besides, the ED50 came to 3 mg/kg with serotonin oedema (setting [7]) and 0.3 mg/kg with serotonin oedema (setting [8]). Besides, the IC50 in the data set on isolated rat uterus amounted to 0.5 ng/mL.
